The record followed here is patent US20240398781A1, “SPIROCYCLIC CYCLIC MODULATORS OF CHOLESTEROL BIOSYNTHESIS AND THEIR USE FOR PROMOTING REMYELINATION” (GENENTECH, INC., priority 2021, published 2024).

pKi: −log10 of the molar value.

Chain of human emopamil binding protein and human 7-dehydrocholesterol reductase co-expressing cells (hEBP-DHCR7 membrane) (Q15125 whole entry): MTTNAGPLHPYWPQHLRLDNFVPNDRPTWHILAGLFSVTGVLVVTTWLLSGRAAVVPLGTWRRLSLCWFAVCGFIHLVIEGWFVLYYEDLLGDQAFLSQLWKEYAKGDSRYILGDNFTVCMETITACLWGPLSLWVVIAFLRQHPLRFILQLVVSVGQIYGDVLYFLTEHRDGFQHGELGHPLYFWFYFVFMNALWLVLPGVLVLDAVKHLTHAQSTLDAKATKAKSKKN

The assay concerns the target human emopamil binding protein and human 7-dehydrocholesterol reductase co-expressing cells (hEBP-DHCR7 membrane) (Homo sapiens (Human), UniProt Q15125). Description: Radioligand filter binding assay on hEBP-DHCR7 membrane. Conditions: [3H]-(S)-6-(2-Methyl-3-(6-(trifluoromethyl)pyridin-3-yl)propyl)-2-thia-6-azaspiro[3.4]octane 2,2-dioxide radioligand, HEK293 membrane co-expressing hEBP and hDHCR7. The gist of the method: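 HEK293 cells transiently co-expressing human EBP and DHCR7 supplied whole-cell membranes (10 μg/well), incubated 3 h at 22 °C with [3H]-labelled spiro-octane dioxide ligand (added at 25 nM) and compound (0.06-5000 nM final, 8 doses, n=2). Bound ligand was collected on PEI-treated GF/B filters and counted by scintillation. IC50 was Hill-fitted from % inhibition and reported as Ki.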
By pKi is commonly meant the negative decadic logarithm of the Ki, by convention in mol/L. A low value points to a high Ki. Turning to `O=S1(=O)CC2(CCN([C@H]3CO[C@@H](c4ccc(C(F)(F)F)cc4)C3)C2)C1` (stereo in doubt) [19A*, 6-((3R,5R)-5-(4-(Trifluoromethyl)phenyl)tetrahydrofuran-3-yl)-2-thia-6-azaspiro[3.4]octane 2,2-dioxide], the pKi is 7.68.

For `Cn1nc(C(F)(F)F)cc1[C@H]1CC[C@H](N2CC[C@@]3(CCS(=O)(=O)C3)C2)CC1` (single isomer, unassigned) [27A*], the pKi is 6.59.

With `CC(C)n1nc(-c2cncc(OC(F)F)c2)cc1[C@H]1CC[C@@H](N2CCC3(C2)CS(=O)(=O)C3)CC1` [Compound 33B, (Cis)-6-(4-(3-(5-(Difluoromethoxy)pyridin-3-yl)-1-isopropyl-1H-pyrazol-5-yl)cyclohexyl)-2-thia-6-azaspiro[3.4]octane 2,2-dioxide], the pKi is 7.55. Compared with the last compound, the pKi is 0.96 log units higher.

The compound `Cc1cc(C(F)(F)F)ncc1[C@H]1CC[C@@H](N2CCC3(C2)CS(=O)(=O)C3)CC1` [Compound 21A, 6-((1s,4s)-4-(4-Methyl-6-(trifluoromethyl)pyridin-3-yl)cyclohexyl)-2-thia-6-azaspiro[3.4]octane 2,2-dioxide] had a pKi of 7.49.

On to `Cn1nc(C(F)(F)F)cc1[C@H]1CC[C@@H](N2CC[C@@]3(CCS(=O)(=O)C3)C2)CC1` (single isomer, unassigned) [38B*], for which the pKi is 7.30.

On to `CC(C)n1nc(-c2ccc(C(F)(F)F)nc2)nc1[C@H]1CC[C@@H](N2CCC3(C2)CS(=O)(=O)C3)C1` (single isomer, unassigned) [17D*], for which the pKi is 7.19.

`CC(C)n1nc(-c2cncc(C(F)(F)F)c2)cc1[C@@H]1CC[C@@H](N2CCC3(C2)CS(=O)(=O)C3)C1` (single isomer, unassigned) [13C*] had a pKi of 7.63.

As to `CC(C)n1cc(C(F)(F)F)nc1[C@@H]1CC[C@H](N2CCC3(C2)CS(=O)(=O)C3)C1` (single isomer, unassigned) [20D*], the pKi was 7.41. Compared with the last compound, the pKi is 0.22 log units lower.

`CCn1nc(-c2ccc(C(F)(F)F)nc2)nc1[C@H]1CC[C@H](N2CCC3(C2)CS(=O)(=O)C3)CC1` [36A*, 6-((1r,4r)-4-(1-Ethyl-3-(6-(trifluoromethyl)pyridin-3-yl)-1H-1,2,4-triazol-5-yl)cyclohexyl)-2-thia-6-azaspiro[3.4]octane 2,2-dioxide] gave a pKi of 7.21.

On to `O=S1(=O)CC2(CCN([C@H]3CC[C@H](c4ccc(C(F)(F)F)nc4)CC3)C2)C1` [Compound 14A, 6-((1r,4r)-4-(6-(Trifluoromethyl)pyridin-3-yl)cyclohexyl)-2-thia-6-azaspiro[3.4]octane 2,2-dioxide], for which the pKi is 7.23.

`O=S1(=O)CC2(CCN([C@H]3CC[C@@H](c4ccc(C(F)(F)F)nc4)C3)C2)C1` (single isomer, unassigned) [Compound 11A, (Cis)-6-(3-(6-(Trifluoromethyl)pyridin-3-yl)cyclopentyl)-2-thia-6-azaspiro[3.4]octane 2,2-dioxide]: the pKi was 7.42.

Consider `CC(C)n1nc(C2CC2)nc1[C@@H]1CC[C@H](N2CCC3(C2)CS(=O)(=O)C3)C1` (single isomer, unassigned) [18A*], for which the pKi is 6.02.

As to `Cn1nc(C(F)(F)F)cc1[C@H]1CC[C@H](N2CCC[C@@]3(CCS(=O)(=O)C3)C2)CC1` (single isomer, unassigned) [26A*], the pKi was 7.60.

Compound `O=S1(=O)CC2(CCN([C@@H]3CCCN(c4ccc(C(F)(F)F)cc4)C3)C2)C1` (single isomer, unassigned) [22A*] showed a pKi of 7.85.

Take `O=S1(=O)CC2(CCN([C@H]3CC[C@@H](c4cc(C(F)(F)F)nn4C4CCC4)CC3)C2)C1` [Compound 23A, 6-((1s,4s)-4-(1-Cyclobutyl-3-(trifluoromethyl)-1H-pyrazol-5-yl)cyclohexyl)-2-thia-6-azaspiro[3.4]octane 2,2-dioxide]: the pKi was 7.68. The pKi values of the last two compounds are within 0.2 log units of each other.

On to `Cn1nc(C(F)(F)F)cc1[C@H]1CC[C@H](N2CCC[C@]3(CCS(=O)(=O)C3)C2)CC1` (single isomer, unassigned) [26B*], for which the pKi is 7.92.

`O=S1(=O)CC2(CCN([C@H]3CO[C@H](c4ccc(C(F)(F)F)cc4)C3)C2)C1` (stereo in doubt) [19D*, 6-((3R,5S)-5-(4-(trifluoromethyl)phenyl)tetrahydrofuran-3-yl)-2-thia-6-azaspiro[3.4]octane 2,2-dioxide] had a pKi of 7.48.

As to `Cc1cc(C(F)(F)F)cnc1N1CCC(N2CCC3(C2)CS(=O)(=O)C3)CC1` [Compound 7, 6-(1-(3-methyl-5-(trifluoromethyl)pyridin-2-yl)piperidin-4-yl)-2-thia-6-azaspiro[3.4]octane 2,2-dioxide], the pKi is 7.76.

`O=S1(=O)CC2(CCN([C@H]3CCN(c4ccc(C(F)(F)F)nc4)C3)C2)C1` (single isomer, unassigned) [9A*] gave a pKi of 7.23.

For `CC(C)n1nc(-c2ccc(C(F)(F)F)nc2)nc1[C@H]1CC[C@H](N2CCC3(C2)CS(=O)(=O)C3)C1` (single isomer, unassigned) [17B*], the pKi was 7.44.

As to `Cn1nc(C(F)(F)F)cc1[C@H]1CC[C@@H](N2CCC3(CC2)CS(=O)(=O)C3)CC1` [Compound 25A, 7-((1s,4s)-4-(1-Methyl-3-(trifluoromethyl)-1H-pyrazol-5-yl)cyclohexyl)-2-thia-7-azaspiro[3.5]nonane 2,2-dioxide], the pKi was 6.35.

As for `CC(C)n1nc(C2CC2)nc1[C@H]1CC[C@@H](N2CCC3(C2)CS(=O)(=O)C3)C1` (single isomer, unassigned) [18D*, 6-(3-(3-cyclopropyl-1-isopropyl-1H-1,2,4-triazol-5-yl)cyclopentyl)-2-thia-6-azaspiro[3.4]octane 2,2-dioxide], the pKi was 5.93. This pKi is 0.42 log units lower than that of the compound before.

Regarding `CC(C)n1nc(-c2cncc(C(F)(F)F)c2)cc1[C@H]1CC[C@@H](N2CCC3(C2)CS(=O)(=O)C3)C1` (single isomer, unassigned) [13A*], the pKi was 8.16.

Turning to `O=S1(=O)CC2(CCN([C@H]3CC[C@@H](c4cc(C(F)(F)F)nn4C4CC4)CC3)C2)C1` [Compound 12B, 6-((1s,4s)-4-(1-Cyclopropyl-3-(trifluoromethyl)-1H-pyrazol-5-yl)cyclohexyl)-2-thia-6-azaspiro[3.4]octane 2,2-dioxide], the pKi is 7.49.

As to `CC(C)n1nc(C(F)(F)F)cc1[C@H]1CC[C@H](N2CCC3(C2)CS(=O)(=O)C3)CC1` [Compound 8A, 6-((1r,4r)-4-(1-isopropyl-3-(trifluoromethyl)-1H-pyrazol-5-yl)cyclohexyl)-2-thia-6-azaspiro[3.4]octane 2,2-dioxide], the pKi was 7.47.

On to `O=S1(=O)CC2(CCN([C@H]3CC[C@H](c4cc(C(F)(F)F)nn4C4CC4)CC3)CC2)C1` [Compound 40B, 7-((1s,4s)-4-(1-cyclopropyl-3-(trifluoromethyl)-1H-pyrazol-5-yl)cyclohexyl)-2-thia-7-azaspiro[3.5]nonane 2,2-dioxide], for which the pKi was 6.74.

`O=S1(=O)CC2(CCN(C3CCN(c4ccc(C(F)(F)F)nc4)CC3)C2)C1` [Compound 5, 6-(1-(6-(trifluoromethyl)pyridin-3-yl)piperidin-4-yl)-2-thia-6-azaspiro[3.4]octane 2,2-dioxide]: the pKi was 6.83.

`Cn1nc(C(F)(F)F)cc1[C@H]1CC[C@@H](N2CCC3(C2)CS(=O)(=O)C3)CC1` [Compound 2A, 6-((1s,4s)-4-(1-methyl-3-(trifluoromethyl)-1H-pyrazol-5-yl)cyclohexyl)-2-thia-6-azaspiro[3.4]octane 2,2-dioxide] showed a pKi of 7.35. This pKi is 0.52 log units higher than that of the compound before.

With `Cn1nc(C(F)(F)F)cc1[C@H]1CC[C@@H](N2CC[C@]3(CCS(=O)(=O)C3)C2)CC1` (single isomer, unassigned) [38A*], the pKi is 7.09.

On to `CCn1nc(-c2ccc(C(F)(F)F)nc2)nc1[C@H]1CC[C@@H](N2CCC3(C2)CS(=O)(=O)C3)CC1` [36B*, 6-((1s,4s)-4-(1-ethyl-3-(6-(trifluoromethyl)pyridin-3-yl)-1H-1,2,4-triazol-5-yl)cyclohexyl)-2-thia-6-azaspiro[3.4]octane 2,2-dioxide], for which the pKi was 6.59.

The compound `O=S1(=O)CC2(CCN(C3CCN(c4ccc(C(F)(F)F)cn4)CC3)C2)C1` [Compound 6, 6-(1-(5-(trifluoromethyl)pyridin-2-yl)piperidin-4-yl)-2-thia-6-azaspiro[3.4]octane 2,2-dioxide] had a pKi of 7.64. Against the preceding compound, the pKi is 1.05 log units higher.

For `CC(C)n1nc(N2CC(F)(F)C2)cc1[C@H]1CC[C@H](N2CCC3(C2)CS(=O)(=O)C3)CC1` [Compound 35, 6-((1r,4r)-4-(3-(3,3-Difluoroazetidin-1-yl)-1-isopropyl-1H-pyrazol-5-yl)cyclohexyl)-2-thia-6-azaspiro[3.4]octane 2,2-dioxide], the pKi is 6.55.

As to `CC(C)n1nc(-c2cncc(C(F)(F)F)c2)cc1[C@H]1CC[C@H](N2CCC3(C2)CS(=O)(=O)C3)C1` (single isomer, unassigned) [13D*], the pKi is 7.72.

Turning to `CC(C)n1cc(C(F)(F)F)nc1[C@@H]1CC[C@@H](N2CCC3(C2)CS(=O)(=O)C3)C1` (single isomer, unassigned) [20B*], the pKi is 6.89. Compared with the last compound, the pKi is 0.83 log units lower.

As for `Cn1nc(C(F)(F)F)cc1[C@H]1CC[C@H](N2CCC3(C2)CS(=O)(=O)C3)CC1` [Compound 2B, 6-((1r,4r)-4-(1-methyl-3-(trifluoromethyl)-1H-pyrazol-5-yl)cyclohexyl)-2-thia-6-azaspiro[3.4]octane 2,2-dioxide], the pKi is 7.16.

In turn, `Cn1nc(C(F)(F)F)cc1[C@H]1CC[C@H](N2CC[C@@]3(CCS(=O)(=O)C3)C2)CC1` (single isomer, unassigned) [38D*] showed a pKi of 7.10.

For `O=S1(=O)CC2(CCN([C@H]3CC[C@@H](c4ccc(C(F)(F)F)nc4)CC3)C2)C1` [Compound 14B, 6-((1s,4s)-4-(6-(Trifluoromethyl)pyridin-3-yl)cyclohexyl)-2-thia-6-azaspiro[3.4]octane 2,2-dioxide], the pKi was 7.55.
